Experimental data from PubChem BioAssay (NCI).
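Dose response: 5 concentrations. Exposure: 48 h. Format: 96-well plates. Endpoint: linear interpolation; highest concentration if not reached. Here, GI50 denotes the concentration required for 50% inhibition of growth. TGI: total growth inhibition.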

What was measured:
Experiment in all cases: growth of human tumour cells (NCI), 48 h
HCT-15 colon = system: HCT-15 colon
SNB-19 CNS = system: SNB-19 CNS
UACC-257 melanoma = system: UACC-257 melanoma
NCI/ADR-RES ovarian = system: NCI/ADR-RES ovarian
HS 578T breast = system: HS 578T breast
SK-MEL-2 melanoma = system: SK-MEL-2 melanoma
SF-268 CNS = system: SF-268 CNS
OVCAR-3 ovarian = system: OVCAR-3 ovarian
MALME-3M melanoma = system: MALME-3M melanoma
SK-OV-3 ovarian = system: SK-OV-3 ovarian
NCI-H460 lung = system: NCI-H460 lung
OVCAR-5 ovarian = system: OVCAR-5 ovarian
A549 NSCLC = system: A549 NSCLC
UO-31 renal = system: UO-31 renal
KM12 colon = system: KM12 colon
U251 CNS = system: U251 CNS
SK-MEL-5 melanoma = system: SK-MEL-5 melanoma
MDA-MB-231 breast = system: MDA-MB-231 breast
HOP-62 NSCLC = system: HOP-62 NSCLC
SF-539 CNS = system: SF-539 CNS
A498 renal = system: A498 renal
HT29 colon = system: HT29 colon
MOLT-4 leukemia = system: MOLT-4 leukemia
BT-549 breast = system: BT-549 breast
MCF7 breast = system: MCF7 breast
RXF 393 renal = system: RXF 393 renal
MDA-MB-435 = system: MDA-MB-435
SR leukemia = system: SR leukemia
786-0 renal = system: 786-0 renal
M14 melanoma = system: M14 melanoma
K-562 leukemia = system: K-562 leukemia
EKVX NSCLC = system: EKVX NSCLC
HCT-116 colon = system: HCT-116 colon
UACC-62 melanoma = system: UACC-62 melanoma
NCI-H522 lung = system: NCI-H522 lung
LOX IMVI melanoma = system: LOX IMVI melanoma
SW-620 colon = system: SW-620 colon
HL-60(TB) leukemia = system: HL-60(TB) leukemia
T-47D breast = system: T-47D breast
TK-10 renal = system: TK-10 renal
ACHN renal = system: ACHN renal
CAKI-1 renal = system: CAKI-1 renal
DU-145 prostate = system: DU-145 prostate
OVCAR-8 ovarian = system: OVCAR-8 ovarian
CCRF-CEM leukemia = system: CCRF-CEM leukemia
SNB-75 CNS = system: SNB-75 CNS
HOP-92 NSCLC = system: HOP-92 NSCLC
COLO 205 colon = system: COLO 205 colon
SN12C renal = system: SN12C renal
SK-MEL-28 melanoma = system: SK-MEL-28 melanoma
HCC-2998 colon = system: HCC-2998 colon
SF-295 CNS = system: SF-295 CNS
IGROV1 ovarian = system: IGROV1 ovarian
OVCAR-4 ovarian = system: OVCAR-4 ovarian
PC-3 prostate = system: PC-3 prostate
RPMI-8226 leukemia = system: RPMI-8226 leukemia

Compound: CN1CCN(Cc2ccc(NC(=O)c3cncc(C#Cc4cnn5cccnc45)c3)cc2C(F)(F)F)CC1
- GI50 (HCT-15 colon): 2.8 µM
- TGI (HCT-15 colon): 10.2 µM
- GI50 (SNB-19 CNS): 4.05 µM
- TGI (SNB-19 CNS): 12.6 µM
- GI50 (UACC-257 melanoma): 2.92 µM
- TGI (UACC-257 melanoma): 12.2 µM
- GI50 (NCI/ADR-RES ovarian): 3.49 µM
- TGI (NCI/ADR-RES ovarian): 12.7 µM
- GI50 (HS 578T breast): 2.65 µM
- TGI (HS 578T breast): 10.3 µM
- GI50 (SK-MEL-2 melanoma): 1.04 µM
- TGI (SK-MEL-2 melanoma): 2.55 µM
- GI50 (SF-268 CNS): 2.54 µM
- TGI (SF-268 CNS): 6.33 µM
- GI50 (OVCAR-3 ovarian): 3.88 µM
- TGI (OVCAR-3 ovarian): 12.9 µM
- GI50 (MALME-3M melanoma): 0.322 µM
- TGI (MALME-3M melanoma): 1.83 µM
- GI50 (SK-OV-3 ovarian): 3.3 µM
- TGI (SK-OV-3 ovarian): 10.6 µM
- GI50 (NCI-H460 lung): 2 µM
- TGI (NCI-H460 lung): 4.72 µM
- GI50 (OVCAR-5 ovarian): 2.45 µM
- TGI (OVCAR-5 ovarian): 12.1 µM
- GI50 (A549 NSCLC): 2.85 µM
- TGI (A549 NSCLC): 9.01 µM
- GI50 (UO-31 renal): 2.28 µM
- TGI (UO-31 renal): 8.57 µM
- GI50 (KM12 colon): 0.0255 µM
- TGI (KM12 colon): 4.38 µM
- GI50 (U251 CNS): 3.3 µM
- TGI (U251 CNS): 14.1 µM
- GI50 (SK-MEL-5 melanoma): 2.6 µM
- TGI (SK-MEL-5 melanoma): 8.94 µM
- GI50 (MDA-MB-231 breast): 1.39 µM
- TGI (MDA-MB-231 breast): 7.58 µM
- GI50 (HOP-62 NSCLC): 2.75 µM
- TGI (HOP-62 NSCLC): 9.35 µM
- GI50 (SF-539 CNS): 1.12 µM
- TGI (SF-539 CNS): 2.75 µM
- GI50 (A498 renal): 8.19 µM
- TGI (A498 renal): 19.8 µM
- GI50 (HT29 colon): 1.36 µM
- TGI (HT29 colon): 5.58 µM
- GI50 (MOLT-4 leukemia): 2.13 µM
- TGI (MOLT-4 leukemia): 7.02 µM
- GI50 (BT-549 breast): 4.63 µM
- TGI (BT-549 breast): 14.5 µM
- GI50 (MCF7 breast): 1.29 µM
- TGI (MCF7 breast): 4.39 µM
- GI50 (RXF 393 renal): 2.25 µM
- TGI (RXF 393 renal): 4.52 µM
- GI50 (MDA-MB-435): 2 µM
- TGI (MDA-MB-435): 8.71 µM
- GI50 (SR leukemia): 2.45 µM
- TGI (SR leukemia): 6.4 µM
- GI50 (786-0 renal): 1.83 µM
- TGI (786-0 renal): 3.3 µM
- GI50 (M14 melanoma): 1.06 µM
- TGI (M14 melanoma): 3.34 µM
- TGI (K-562 leukemia): 1.32 µM
- GI50 (EKVX NSCLC): 5.01 µM
- TGI (EKVX NSCLC): 16.7 µM
- GI50 (HCT-116 colon): 0.941 µM
- TGI (HCT-116 colon): 2.62 µM
- GI50 (UACC-62 melanoma): 2.9 µM
- TGI (UACC-62 melanoma): 13.3 µM
- GI50 (NCI-H522 lung): 1.71 µM
- TGI (NCI-H522 lung): 3.51 µM
- GI50 (LOX IMVI melanoma): 1.23 µM
- TGI (LOX IMVI melanoma): 3.12 µM
- GI50 (SW-620 colon): 1.67 µM
- TGI (SW-620 colon): 5.01 µM
- GI50 (HL-60(TB) leukemia): 0.598 µM
- TGI (HL-60(TB) leukemia): 2.67 µM
- GI50 (T-47D breast): 6.08 µM
- TGI (T-47D breast): 22 µM
- GI50 (TK-10 renal): 3.99 µM
- TGI (TK-10 renal): 9.78 µM
- GI50 (ACHN renal): 2.29 µM
- TGI (ACHN renal): 6.84 µM
- GI50 (CAKI-1 renal): 1.8 µM
- TGI (CAKI-1 renal): 7.53 µM
- GI50 (DU-145 prostate): 2.94 µM
- TGI (DU-145 prostate): 9.25 µM
- GI50 (OVCAR-8 ovarian): 2.87 µM
- TGI (OVCAR-8 ovarian): 10.4 µM
- GI50 (CCRF-CEM leukemia): 2.28 µM
- TGI (CCRF-CEM leukemia): 6.47 µM
- GI50 (SNB-75 CNS): 2.84 µM
- TGI (SNB-75 CNS): 12.3 µM
- GI50 (HOP-92 NSCLC): 0.376 µM
- TGI (HOP-92 NSCLC): 4 µM
- GI50 (COLO 205 colon): 1.4 µM
- TGI (COLO 205 colon): 3.31 µM
- GI50 (SN12C renal): 2.66 µM
- TGI (SN12C renal): 10.4 µM
- GI50 (SK-MEL-28 melanoma): 1.86 µM
- TGI (SK-MEL-28 melanoma): 8.55 µM
- GI50 (HCC-2998 colon): 2.4 µM
- TGI (HCC-2998 colon): 10.8 µM
- GI50 (SF-295 CNS): 10.9 µM
- TGI (SF-295 CNS): 23.2 µM
- GI50 (IGROV1 ovarian): 2.12 µM
- TGI (IGROV1 ovarian): 7.63 µM
- GI50 (OVCAR-4 ovarian): 2.88 µM
- TGI (OVCAR-4 ovarian): 13.1 µM
- GI50 (PC-3 prostate): 3.06 µM
- TGI (PC-3 prostate): 13.3 µM
- GI50 (RPMI-8226 leukemia): 1.83 µM
- TGI (RPMI-8226 leukemia): 5.1 µM
